Experimental data published in patent publication US9422557B2, “Methods and compositions for weed control” (Monsanto Technology LLC, priority 2011, dated 2016).

Legend:
[1] = tested on: Glyphosate-sensitive Palmer amaranth (A. palmeri R-22) plants; experiment: Topical treatment of Palmer amaranth with pooled ssDNA ACCase oligonucleotides followed by clethodim; plant height; assay type: in vivo, Amaranthus palmeri; settings: clethodim (SelectMax) 272 g ai/ha with 1% COC; ssDNA pool at 16 nmol applied 24 and 48 hours before herbicide where used; height followed up to twelve days after herbicide; four replications; FIG. 1
Experimental: (§1) Glyphosate-sensitive Palmer amaranth (A. palmeri R-22) plants where grown in the greenhouse (30/20 C day/night T; 14 hour photoperiod) in 4 inch square pots containing Sun Gro® Redi-Earth and 3.5 kg/cubic meter Osmocote® 14-14-14 fertilizer. Palmer amaranth plants at 5 to 10 cm in height were treated with a pool of eight 8 short (21-22mer) single-strand antisense oligo DNA polynucleotides (ssDNA) targeting ACCase shown in Table 2 at 16 nmol, formulated in 10 millimolar sodium phosphate buffer (pH 6.8) containing 2% ammonium sulfate and 0.5% Silwet L-77. Plants were treated manually by pipetting 10 μL of polynucleotide solution on four fully expanded mature leaves, for a total of 40 microliters of solution per plant. Twenty-four and forty-eight hours later, the plants were treated with clethodim (SelectMax®, 0.97 lb ai per gallon; ACCase inhibitor) at 272 g ai/ha, crop oil concentrate (COC) at 1% was added to the herbicide treatments. Four replications of each treatment were conducted. Plant height was determined just before ssDNA treatment and at intervals upto twelve days after herbicide treatments to determine effect of the oligonucleotide and herbicide treatments.

[2] = tested on: Glyphosate-sensitive Palmer amaranth (A. palmeri R-22) plants; experiment: Follow-up test of individual ACCase oligonucleotides with herbicide 24 hours later; growth effects; assay type: in vivo, Amaranthus palmeri; settings: 4 nmol oligonucleotide per plant, four plants; herbicide applied 24 hours after the oligonucleotide treatment
Experimental: as §1
An additional test was conducted to determine which of the ACCase oligonucleotides was responsible for the result. […]

Row | Compound | reduction in plant height relative to the untreated control [1] [%] | reduction of plant growth relative to untreated plants (average) [2] [%]
1 | CCSC(C)CC1CC(=O)C(C(CC)=NOC/C=C/Cl)=C(O)C1 (centres unmarked) [clethodim, 2-[1-[[[(2E)-3-chloro-2-propen-1-yl]oxy]imino]propyl]-5-[2-(ethylthio)propyl]-3-hydroxy-2-cyclohexen-1-one] | 0 | –
2 | oligo6: single-strand antisense DNA oligo targeting ACCase, GCACCACGAGGATCACAAGAA (DNA, backbone and methylation of C not given here; listed as Amaranthus palmeri) | – | 40
